Data set [1] concerns white mice. Kind of data set: Acute toxicity, oral. Type of data set: in vivo. The following applies: 14 days, at the dose given as LD50. As for the experimental part:
(§1) The above pharmacologicaly activity of the compounds of this invention, as well as their acute toxicities, were ascertained along with those of the three antihyperlipidemic compounds of the prior art by the standard test methods described below.
(§2) The acute toxicity was determined on groups of 5 or 6 white mice each, after oral administration of the test compound at dosage levels of 2.5 gm/kg, 5 gm/kg and 10 gm/kg (observation time 14 days).

Data set [2] can be described thus: Acute toxicity, oral. Type of data set: in vivo. The following applies: mouse, in vivo, white mice, observation time 14 days. As for the experimental part:
as §1, §2

In data set [3] the test system is Cholesterol level in the serum. Kind of data set: Lipid level lowering activity: serum cholesterol depression in normolipemic rats. Particulars: Rattus norvegicus, oral, by regression analysis; for ED20: dose leading to 20% depression of serum cholesterol; for ED15: dose leading to 15% depression of serum cholesterol. The class given is in vivo, male normolipemic rats. Here is the method:
as §1
The test compound was administered twice by an esophageal tube at 20 hours' interval to male normolipemic rats having a body weight of 250-300 gm. When the test began, the animals were deprived of food, but water was freely accessible to them. 28 and 44 hours later the serum cholesterol and triglyceride-levels were determined. The measurement of cholesterol and triglycerides was effected simultaneously, using an autoanalyzer; the percentage depression was calculated, compared with a control group treated with placebo.
The cholesterol-lowering activity of the test compound was observed after oral administration of one dose and after oral administration of various doses.

For data set [4] the following is noted: see Therapie 27, 385 (1972); cited from earlier work.
The conditions of data set [5]: as disclosed in prior-art patents; cited from earlier work.
Where [6] appears, read: 28 hours after beginning of the test.
Where [7] appears, read: 44 hours after beginning of the test.

Turning to `COc1ccc(Cl)cc1C(=O)NCCc1ccc(-c2ccc(OC(C)(C)C(=O)O)cc2)cc1` [A, 2-methyl-2-{4-[2-(2-methoxy-5-chloro-benzamido)-ethyl]-biphenyl-4'-oxy}-propionic acid], in data set [1], the animals died is recorded as 0 out of 5. Further, the median lethal dose (LD50) at 336 h in data set [2] is more than 10000 mg/kg. Also, the ED20 is 16 mg/kg in data set [3] (setting [6]) and 4.41 mg/kg in data set [3] (setting [7]).
For the molecule `COc1ccccc1C(=O)NCCc1ccc(-c2ccc(OC(C)(C)C(=O)O)cc2)cc1` [B, 2-methyl-2-{4-[2-(2-methoxy-benzamido)-ethyl]-biphenyl-4'-oxy}-propionic a cid], the animals died in data set [1] is on record as 1 out of 5. Further, the LD50 at 336 h in data set [2] was more than 2500 mg/kg. Further, the ED20 in data set [3] (setting [6]) is 3.1 mg/kg; in data set [3] (setting [7]), 0.59 mg/kg.
On to `CCOC(=O)C(C)(C)Oc1ccc(Cl)cc1` [C, ethyl 2-(4-chlorophenoxy)-2-methyl propionate], for which, in data set [4], the “Toxicity (LD50)” value is 1.7 gm/kg. Also, the “antihypercholesteremic / antihyperlipidemic properties” value in data set [5] is listed as “has antihypercholesteremic properties”. The ED15 in data set [3] (setting [6]) stood at 15 mg/kg; in data set [3] (setting [7]) it was 25 mg/kg. Also, the ED20 amounted to 22 mg/kg in data set [3] (setting [6]) and 32 mg/kg in data set [3] (setting [7]).
On to `COC(=O)C(C)(C)Oc1ccc(-c2ccc(Cl)cc2)cc1` [D, methyl 2-[4-(4-chlorophenyl)-phenoxy]-2-methyl-propionate], for which, in data set [1], the animals died was 3 out of 5. For the same molecule, the LD50 at 336 h in data set [2] is 5000 mg/kg. In addition, the “antihypercholesteremic / antihyperlipidemic properties” value in data set [5] is given as “has antihyperlipidemic properties”. Moreover, the ED15 is 6.9 mg/kg in data set [3] (setting [6]) and 4.4 mg/kg in data set [3] (setting [7]). Moreover, the ED20 in data set [3] (setting [6]) came to 11 mg/kg; in data set [3] (setting [7]), 5.6 mg/kg.
Take `CCOC(=O)C(C)(C)Oc1ccc(CCNC(=O)c2cc(Cl)ccc2OC)cc1` [E, ethyl 2-methyl-2-{4-[2-(2-methoxy-5-chloro-benzamido)-ethyl]-phenoxy}-propionate]: the animals died in data set [1] is given as 3 out of 6. The same molecule yielded an LD50 at 336 h in data set [2] of 2500 mg/kg. Also, the “antihypercholesteremic / antihyperlipidemic properties” value in data set [5] is recorded as “exhibits similar properties”. For the same molecule, in data set [3] (setting [6]), the ED15 amounted to 3.6 mg/kg and the ED20 is 5 mg/kg. Further, in data set [3] (setting [7]), the ED15 worked out at 3.6 mg/kg and the ED20 worked out at 5 mg/kg.

Values taken from US4042711A, “Derivatives of biphenyloxy-lower alkanoic acids, salts thereof and their use as antihyperlipidemics” (Boehringer Ingelheim GmbH, priority 1975, dated 1977).
